We go through 39 molecules from PubChem BioAssay AID504393 (Southern Research Specialized Biocontainment Screening …, 2011).

Activity calls are given as the source filed them. How the calls were made is not given here.

For the assay, the system named is MAGI cells cytotoxicity, % cell control, 2% serum. The assay is described as follows: MAGI cell cytotoxicity in HIV-1 antiviral work, dose response, cytotoxicity control for HIV-1 antiviral lead project, MAGI cells, 2% serum, TC50 (AID 504393).
In the case of `Nc1sc2ccccc2[n+]1Cc1ccc(C(=O)O)cc1`, the TC50 is > 100 µM (inactive).
On to `O=C(O)c1ccc([C@@H]2Nc3ccc(S(=O)(=O)Nc4cccc5ccccc45)cc3[C@@H]3C=CC[C@@H]32)cc1`, for which the TC50 is 54.8 µM.
In the case of `CCc1ccc(-c2ccc(/C=C3\SC(=S)N(CCCC(=O)O)C3=O)o2)cc1`, the TC50 was > 100 µM (inactive).
Consider `O=C(O)CCCN1C(=O)/C(=C/c2cc3ccccc3o2)SC1=S`, for which the TC50 is 83.6 µM.
Next, `COc1ccc(-c2ccc(/C=C3\SC(=S)N(CCCC(=O)O)C3=O)o2)cc1`: > 100 µM (inactive); `CCOC(=O)C1=C(C)N=c2sc(=Cc3ccc(OCC(=O)O)cc3)c(=O)n2C1c1ccc(OC)cc1OC` (centres undefined): > 100 µM (inactive).
Take `Cc1c2c(=O)n(-c3nc4ccccc4s3)nc-2cc(O)n1Cc1ccncc1`: the TC50 was 85.9 µM.
On to `Cc1c2c(=O)n(-c3nc4ccccc4s3)nc-2cc(O)n1Cc1cccnc1`, for which the TC50 was 99.2 µM.
In the case of `O=C(O)CCC(C(=O)O)N1C(=O)/C(=C\c2ccco2)SC1=S` (centres undefined), the TC50 is > 100 µM (inactive).
Next, `CS(=O)(=O)C1=NSC2=NC(=O)/C(=C\c3cccn3-c3cccc(C(F)(F)F)c3)C(=N)N21`: 79.5 µM; `CCOC(=O)C1=C(C)N=c2sc(=Cc3ccc(OCC(=O)O)cc3)c(=O)n2C1c1ccccc1` (centres undefined): > 100 µM (inactive); `CS(=O)(=O)C1=NSC2=NC(=O)/C(=C\c3cccn3-c3cc(Cl)cc(Cl)c3)C(=N)N21`: 36.5 µM.
Next, `Cc1c2c(=O)n(-c3nc4ccccc4s3)nc-2cc(O)n1CCC(C)C`: 65.1 µM; `CC1=C(C(=O)OC(C)C)C(c2ccc(Cl)cc2)n2c(s/c(=C\c3ccc(OCC(=O)O)cc3)c2=O)=N1` (centres undefined): > 100 µM (inactive).
Next, `CS(=O)(=O)C1=NSC2=NC(=O)/C(=C\c3cccn3-c3ccc(Cl)c(Cl)c3)C(=N)N21`: 56.7 µM; `CCOC(=O)C1=C(C)N=c2sc(=Cc3ccc(OCC(=O)O)cc3)c(=O)n2C1c1ccccc1OC` (centres undefined): > 100 µM (inactive); `CCOC(=O)C1=C(C)N=c2s/c(=C\c3ccc(OCC(=O)O)cc3)c(=O)n2C1c1ccc(Cl)cc1` (centres undefined): > 100 µM (inactive).
With `Cc1c2c(=O)n(-c3nc4ccccc4s3)nc-2cc(O)n1CCc1ccc(O)cc1`, the TC50 was 37.6 µM.
As for `CCc1ccc(-n2cccc2/C=C2/C(=N)N3C(=NC2=O)SN=C3S(C)(=O)=O)cc1`, the figure is 49.7 µM.
Next, `Cc1ccc(-n2cccc2/C=C2/C(=N)N3C(=NC2=O)SN=C3S(C)(=O)=O)cc1C`: 48.9 µM.
As for `COc1ccc(-n2cccc2/C=C2/C(=N)N3C(=NC2=O)SN=C3S(C)(=O)=O)cc1Cl`, the figure is 42.4 µM.
As for `Cc1ccc(-c2ccc(/C=C3\SC(=S)N(CCCC(=O)O)C3=O)o2)cc1`, the TC50 was > 100 µM (inactive).
`Cc1c2c(=O)n(-c3nc4ccccc4s3)nc-2cc(O)n1Cc1ccc(F)cc1`: the TC50 was 70.4 µM.
As for `O=C(O)CCCN1C(=O)/C(=C/c2ccc(-c3ccc(Cl)c(Cl)c3)o2)SC1=S`, the TC50 was 11.7 µM.
Next, `COc1ccccc1Cn1c(O)cc2nn(-c3nc4ccccc4s3)c(=O)c-2c1C`: 45.7 µM; `COc1cccc(C2C(C(=O)Nc3ccccc3)=C(C)N=c3sc(=Cc4ccc(OCC(=O)O)cc4)c(=O)n32)c1` (centres undefined): > 100 µM (inactive); `O=C(O)CCCN1C(=O)/C(=C\c2ccc(-c3cccc(Cl)c3)o2)SC1=S`: 40 µM.
As for `COc1ccc(Cn2c(O)cc3nn(-c4nc5ccccc5s4)c(=O)c-3c2C)cc1`, the figure is 56.3 µM; as for `O=C(O)CCCN1C(=O)/C(=C/c2ccc(-c3cccc(C(F)(F)F)c3)o2)SC1=S`, > 100 µM (inactive).
As for `CCOC(=O)C1=C(c2ccccc2)N=c2s/c(=C\c3ccc(OCC(=O)O)cc3)c(=O)n2C1c1cccc(OC)c1` (centres undefined), the figure is 57.5 µM.
Turning to `COc1cccc(-n2cccc2/C=C2/C(=N)N3C(=NC2=O)SN=C3S(C)(=O)=O)c1`, the TC50 is 57.6 µM.
As for `CS(=O)(=O)C1=NSC2=NC(=O)/C(=C\c3cccn3-c3cccc(Cl)c3)C(=N)N21`, the figure is > 100 µM (inactive); as for `O=C(O)c1ccc(C[n+]2c(-c3ccccc3)csc2Nc2ccccc2)cc1`, 80.6 µM.
As for `Cc1c2c(=O)n(-c3nc4ccccc4s3)nc-2cc(O)n1Cc1ccccc1Cl`, the figure is 82 µM; as for `CCOC(=O)C1=C(C)N=c2sc(=Cc3ccc(OCC(=O)O)cc3)c(=O)n2C1c1cc(OC)c(OC)c(OC)c1` (centres undefined), > 100 µM (inactive).
For `COc1ccc(CCn2c(O)cc3nn(-c4nc5ccccc5s4)c(=O)c-3c2C)cc1`, the TC50 was > 100 µM (inactive).
As for `CCOC(=O)C1=C(C)N=c2s/c(=C\c3ccc(OCC(=O)O)cc3)c(=O)n2C1c1ccc(OC)c(OCC)c1` (centres undefined), the figure is > 100 µM (inactive).
Next, `CS(=O)(=O)C1=NSC2=NC(=O)/C(=C\c3cccn3-c3ccc(F)cc3)C(=N)N21`: > 100 µM (inactive).
`CCOc1ccc(-n2cccc2/C=C2/C(=N)N3C(=NC2=O)SN=C3S(C)(=O)=O)cc1`: the TC50 was 42.6 µM.
